In the Kinase Knowledgebase extract (Sharma et al. 2016):

Target: ROCK2 (human) (UniProt O75116)
Experiment: Inhibition of ROCK2 Kinase Activity

Sequence of ROCK2 (human) (O75116 whole entry, looked up): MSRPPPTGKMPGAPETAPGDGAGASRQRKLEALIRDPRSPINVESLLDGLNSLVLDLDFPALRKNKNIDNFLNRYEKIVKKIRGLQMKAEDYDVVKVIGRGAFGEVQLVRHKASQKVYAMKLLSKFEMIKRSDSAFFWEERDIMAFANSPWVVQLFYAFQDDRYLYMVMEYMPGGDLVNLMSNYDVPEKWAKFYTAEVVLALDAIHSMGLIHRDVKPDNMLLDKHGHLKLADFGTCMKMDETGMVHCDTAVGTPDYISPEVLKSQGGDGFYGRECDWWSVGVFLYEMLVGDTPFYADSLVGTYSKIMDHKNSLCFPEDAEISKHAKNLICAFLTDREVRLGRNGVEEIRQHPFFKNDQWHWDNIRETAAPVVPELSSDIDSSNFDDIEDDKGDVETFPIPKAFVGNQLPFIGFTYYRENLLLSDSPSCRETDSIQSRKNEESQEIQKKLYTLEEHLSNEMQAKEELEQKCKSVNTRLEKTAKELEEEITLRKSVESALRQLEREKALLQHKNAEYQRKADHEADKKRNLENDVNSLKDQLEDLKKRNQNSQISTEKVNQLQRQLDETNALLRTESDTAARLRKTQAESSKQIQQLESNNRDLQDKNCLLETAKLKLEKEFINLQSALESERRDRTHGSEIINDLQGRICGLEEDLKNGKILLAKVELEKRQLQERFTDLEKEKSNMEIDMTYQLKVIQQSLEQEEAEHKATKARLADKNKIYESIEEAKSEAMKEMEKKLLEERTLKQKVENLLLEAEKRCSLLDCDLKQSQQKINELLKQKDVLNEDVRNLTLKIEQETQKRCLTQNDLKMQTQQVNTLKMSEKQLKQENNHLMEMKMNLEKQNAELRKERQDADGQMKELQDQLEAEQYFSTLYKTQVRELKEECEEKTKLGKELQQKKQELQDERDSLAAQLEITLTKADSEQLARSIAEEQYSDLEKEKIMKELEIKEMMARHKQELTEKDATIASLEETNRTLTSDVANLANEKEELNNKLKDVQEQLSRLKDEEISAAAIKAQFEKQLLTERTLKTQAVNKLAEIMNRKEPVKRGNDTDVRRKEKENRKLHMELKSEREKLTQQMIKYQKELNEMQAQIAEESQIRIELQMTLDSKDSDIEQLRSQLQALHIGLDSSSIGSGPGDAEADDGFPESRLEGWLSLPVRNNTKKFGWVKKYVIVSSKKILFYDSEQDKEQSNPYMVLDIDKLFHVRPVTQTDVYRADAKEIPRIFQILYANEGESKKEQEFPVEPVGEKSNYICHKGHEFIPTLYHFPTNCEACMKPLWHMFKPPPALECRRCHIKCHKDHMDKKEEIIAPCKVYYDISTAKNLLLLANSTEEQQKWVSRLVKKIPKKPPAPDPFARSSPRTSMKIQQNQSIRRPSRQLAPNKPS

SMILES | IC50
O=C(NCc1nc(-c2ccncc2)n[nH]1)c1ccccc1C(F)(F)F | > 5 µM
O=C(NCc1nc(-c2c[nH]c3ncccc23)n[nH]1)c1cc2ccccc2o1 | > 5 µM
O=C(NCc1nc(-c2c[nH]c3ncccc23)n[nH]1)c1cc(Br)ccc1Cl | > 5 µM
CC(C(=O)NCc1nc(-c2c[nH]c3ncccc23)n[nH]1)c1cccc(C(=O)OCc2ccccc2)c1 (configuration not stated) | > 5 µM
CCCCCc1ccc(C(=O)NCc2nc(-c3ccncc3)n[nH]2)cc1 | > 5 µM
O=C(NCc1nc(-c2c[nH]c3ncccc23)n[nH]1)c1ccc2ccccc2c1O | > 5 µM
O=C(NCc1nc(-c2ccncc2)n[nH]1)c1ccc(F)c([N+](=O)[O-])c1 | > 5 µM
COc1ccc(C(=O)NCc2nc(-c3c[nH]c4ncccc34)n[nH]2)cc1O | > 5 µM
COc1ccc(C(=O)NCc2nc(-c3ccncc3)n[nH]2)c(OC)c1OC | > 5 µM
Cc1ccc(SCC(=O)NCc2nc(-c3c[nH]c4ncccc34)n[nH]2)cc1 | > 5 µM
CN(Cc1nc(-c2ccncc2)n[nH]1)C(=O)c1ccc(O)cc1O | > 5 µM
CC(C)C(C(=O)NCc1nc(-c2ccncc2)n[nH]1)N(C)C(=O)OC(C)(C)C (configuration not stated) | > 5 µM
CC(=O)NCC(=O)NCc1nc(-c2ccncc2)n[nH]1 | > 5 µM
CC(C)c1ccc(C(=O)NCc2nc(-c3c[nH]c4ncccc34)n[nH]2)cc1 | > 5 µM
O=C(C=Cc1ccccc1C(F)(F)F)NCc1nc(-c2ccncc2)n[nH]1 | > 5 µM
O=C(c1cccs1)N1CCCC1c1nc(-c2ccncc2)n[nH]1 (configuration not stated) | > 5 µM
O=C(C=Cc1ccccc1Cl)NCc1nc(-c2c[nH]c3ncccc23)n[nH]1 | > 5 µM
O=C(NCc1nc(-c2c[nH]c3ncccc23)n[nH]1)c1ccc([N+](=O)[O-])cc1Cl | > 5 µM
CCCc1ccc(C(=O)NCc2nc(-c3c[nH]c4ncccc34)n[nH]2)cc1 | > 5 µM
Cc1ccc(C(=O)NCc2nc(-c3c[nH]c4ncccc34)n[nH]2)cc1F | > 5 µM

SMILES | IC50
O=C(C=Cc1ccccc1F)NCc1nc(-c2ccncc2)n[nH]1 | > 5 µM
Cc1ccc(C)c(C(=O)NCc2nc(-c3c[nH]c4ncccc34)n[nH]2)c1 | > 5 µM
O=C(C=Cc1ccc(Cl)cc1)NCc1nc(-c2ccncc2)n[nH]1 | > 5 µM
CC(C)(C)OC(=O)N1CCCC1C(=O)NCc1nc(-c2ccncc2)n[nH]1 (configuration not stated) | > 5 µM
COc1ccc(C(=O)NCc2nc(-c3ccncc3)n[nH]2)cc1C | > 5 µM
O=C(NCc1nc(-c2ccncc2)n[nH]1)c1ccncc1-c1ccccc1 | > 5 µM
O=C(NCc1nc(-c2ccncc2)n[nH]1)c1cccc(O)c1O | > 5 µM
O=C(Cc1ccc(O)c(Cl)c1)NCc1nc(-c2c[nH]c3ncccc23)n[nH]1 | > 5 µM
Cc1cccc(C(=O)NCc2nc(-c3c[nH]c4ncccc34)n[nH]2)c1 | > 5 µM
O=C(NCc1nc(-c2ccncc2)n[nH]1)c1cc(F)c(F)cc1Cl | > 5 µM
O=C(NCc1nc(-c2c[nH]c3ncccc23)n[nH]1)c1cncc(Br)c1 | > 5 µM
CC(O)C(=O)NCc1nc(-c2c[nH]c3ncccc23)n[nH]1 (configuration not stated) | > 5 µM
O=C(NCc1nc(-c2ccncc2)n[nH]1)c1cnc[nH]1 | > 5 µM
CC(C)(C)OC(=O)N1CCNC(C(=O)NCc2nc(-c3ccncc3)n[nH]2)C1 (configuration not stated) | > 5 µM
COc1ccc(C(=O)NCc2nc(-c3c[nH]c4ncccc34)n[nH]2)cc1 | > 5 µM
Cc1ccc([N+](=O)[O-])c(C(=O)NCc2nc(-c3ccncc3)n[nH]2)c1 | > 5 µM
O=C(NCc1nc(-c2c[nH]c3ncccc23)n[nH]1)c1ccncc1 | > 5 µM
O=C(NCc1nc(-c2ccncc2)n[nH]1)c1ccccc1Cc1ccccc1 | > 5 µM
O=C(NCc1nc(-c2c[nH]c3ncccc23)n[nH]1)c1ccc(-c2ccc(O)cc2)cc1 | > 5 µM
Cc1ccc(SCC(=O)NCc2nc(-c3ccncc3)n[nH]2)cc1 | > 5 µM

SMILES | IC50
COc1ccccc1C=CC(=O)NCc1nc(-c2c[nH]c3ncccc23)n[nH]1 | > 5 µM
O=C(NCc1nc(-c2c[nH]c3ncccc23)n[nH]1)c1ccc(Oc2ccccc2)cc1 | > 5 µM
Cc1cc(C)cc(C(=O)NCc2nc(-c3c[nH]c4ncccc34)n[nH]2)c1 | > 5 µM
Cc1ccc(C(=O)NCc2nc(-c3c[nH]c4ncccc34)n[nH]2)c(C)c1 | > 5 µM
CCOC(=O)CC(=O)NCc1nc(-c2c[nH]c3ncccc23)n[nH]1 | > 5 µM
COc1cc(C(=O)NCc2nc(-c3c[nH]c4ncccc34)n[nH]2)cc(OC)c1O | > 5 µM
Cc1cc(C(=O)NCc2nc(-c3c[nH]c4ncccc34)n[nH]2)ccc1Br | > 5 µM
CCCCCCCC(=O)NCc1nc(-c2ccncc2)n[nH]1 | > 5 µM
CC(=O)c1cccc(C(=O)NCc2nc(-c3ccncc3)n[nH]2)c1 | > 5 µM
O=C(NCc1nc(-c2ccncc2)n[nH]1)c1cc(Cl)ccc1O | > 5 µM
O=C(NCc1nc(-c2c[nH]c3ncccc23)n[nH]1)c1c(F)cccc1Cl | > 5 µM
O=C(C=Cc1ccc2c(c1)OCO2)NCc1nc(-c2ccncc2)n[nH]1 | > 5 µM
CC(C)(C)OC(=O)NC1CCN(C(=O)Cc2nc(-c3ccncc3)n[nH]2)C1 (configuration not stated) | > 5 µM
O=C(NCc1nc(-c2c[nH]c3ncccc23)n[nH]1)c1ccc2cc(O)ccc2c1 | > 5 µM
COc1cccc(O)c1C(=O)NCc1nc(-c2c[nH]c3ncccc23)n[nH]1 | > 5 µM
COC1=CC(OC)(C(=O)NCc2nc(-c3ccncc3)n[nH]2)C=C1 (configuration not stated) | > 5 µM
O=C(NCc1nc(-c2ccncc2)n[nH]1)c1cc(F)c(F)cc1[N+](=O)[O-] | > 5 µM
CC(C)c1cc(C(=O)NCc2nc(-c3ccncc3)n[nH]2)c(O)c(C(C)C)c1 | > 5 µM
CC(C(=O)NCc1nc(-c2c[nH]c3ncccc23)n[nH]1)c1ccc(O)cc1 (configuration not stated) | > 5 µM

Now from value to molecule:

IC50 | SMILES
> 5 µM | CC(C)Cc1ccc(C(C)C(=O)NCc2nc(-c3ccncc3)n[nH]2)cc1 (configuration not stated)
≤ 5 µM | O=C(NCc1nc(-c2ccncc2)n[nH]1)c1ccccc1O
> 5 µM | O=C(Cc1ccc2c(c1)OCO2)NCc1nc(-c2c[nH]c3ncccc23)n[nH]1
≤ 5 µM | O=C(NCc1nc(-c2ccncc2)c[nH]1)c1cccs1
> 5 µM | O=C(NCc1nc(-c2c[nH]c3ncccc23)n[nH]1)c1csc2ccccc12
> 5 µM | O=C(NCc1nc(-c2ccncc2)n[nH]1)c1cccc(Br)c1
> 5 µM | O=C(NCc1nc(-c2ccncc2)n[nH]1)c1cccc([N+](=O)[O-])c1
> 5 µM | O=C(NCc1nc(-c2c[nH]c3ncccc23)n[nH]1)c1cccc(F)c1
> 5 µM | COc1cc(C(=O)NCc2nc(-c3c[nH]c4ncccc34)n[nH]2)cc(Cl)n1
> 5 µM | COc1cccc(OC)c1C(=O)NCc1nc(-c2ccncc2)n[nH]1
> 5 µM | O=C(C=Cc1ccccc1F)NCc1nc(-c2c[nH]c3ncccc23)n[nH]1
≤ 5 µM | Cc1cc(C(=O)NCc2nc(-c3ccncc3)n[nH]2)ccc1O
> 5 µM | COc1cc(OC)c(C(=O)NCc2nc(-c3ccncc3)n[nH]2)cc1OC
> 5 µM | O=C(NCc1nc(-c2c[nH]c3ncccc23)n[nH]1)c1ccc(Cl)cc1[N+](=O)[O-]
> 5 µM | O=C(NCc1nc(-c2c[nH]c3ncccc23)n[nH]1)c1ncc[nH]1
> 5 µM | N#Cc1cccc(C(=O)NCc2nc(-c3c[nH]c4ncccc34)n[nH]2)c1
> 5 µM | O=C(NCc1nc(-c2ccncc2)n[nH]1)c1cccc(O)c1
> 5 µM | Cc1c(Cl)ccc(S(=O)(=O)NCc2nc(-c3ccncc3)n[nH]2)c1O
≤ 5 µM | Cc1ccsc1C(=O)NCc1nc(-c2ccncc2)n[nH]1
> 5 µM | O=Cc1ccccc1C(=O)NCc1nc(-c2ccncc2)n[nH]1
> 5 µM | O=C(NCc1nc(-c2c[nH]c3ncccc23)n[nH]1)c1cc(Cl)ccc1O
≤ 5 µM | O=C(NCc1nc(-c2ccncc2)n[nH]1)c1cccc2cc[nH]c12
> 5 µM | O=C(NCc1nc(-c2ccncc2)n[nH]1)c1ccccn1
> 5 µM | Cc1c(C(=O)NCc2nc(-c3ccncc3)n[nH]2)cccc1[N+](=O)[O-]

IC50 | SMILES
> 5 µM | O=C(NCc1nc(-c2c[nH]c3ncccc23)n[nH]1)c1ccnc(Cl)c1
≤ 5 µM | CC(NC(=O)c1ccc(O)cc1O)c1nc(-c2ccncc2)n[nH]1 (configuration not stated)
> 5 µM | N#Cc1ccc(C(=O)NCc2nc(-c3ccncc3)n[nH]2)cc1
> 5 µM | CC(C)(C)OC(=O)NC(Cc1ccccc1)C(=O)NCc1nc(-c2c[nH]c3ncccc23)n[nH]1 (configuration not stated)
> 5 µM | CC(C(=O)NCc1nc(-c2c[nH]c3ncccc23)n[nH]1)c1ccc(-c2ccccc2)c(F)c1 (configuration not stated)
> 5 µM | O=C(CCc1nc2ccccc2[nH]1)NCc1nc(-c2ccncc2)n[nH]1
> 5 µM | O=C(NCc1nc(-c2c[nH]c3ncccc23)n[nH]1)c1cccc(Cl)c1Cl
> 5 µM | CC(=O)c1cccc(C(=O)NCc2nc(-c3c[nH]c4ncccc34)n[nH]2)c1
> 5 µM | CC(C)(C)C(=O)Oc1ccc(C(=O)NCc2nc(-c3ccncc3)n[nH]2)cc1
≤ 5 µM | O=C(O)c1ccc(C(=O)NCc2nc(-c3ccncc3)n[nH]2)cc1
> 5 µM | Cc1cccc([N+](=O)[O-])c1C(=O)NCc1nc(-c2c[nH]c3ncccc23)n[nH]1
> 5 µM | O=C(NCc1nc(-c2ccncc2)n[nH]1)c1cncc(Br)c1
> 5 µM | O=C(NCc1nc(-c2ccncc2)n[nH]1)c1cc(O)c(O)c(O)c1
≤ 5 µM | Cc1cccc(C(=O)NCc2nc(-c3ccncc3)c[nH]2)c1O
≤ 5 µM | O=C(NCc1nc(-c2ccncc2)n[nH]1)c1cc2ccccc2s1
> 5 µM | CS(=O)(=O)Nc1cccc(C(=O)NCc2nc(-c3ccncc3)n[nH]2)c1
> 5 µM | CC(=O)NC(Cc1ccc(O)cc1)C(=O)NCc1nc(-c2c[nH]c3ncccc23)n[nH]1 (configuration not stated)
> 5 µM | O=C(C=Cc1ccccc1O)NCc1nc(-c2ccncc2)n[nH]1
≤ 5 µM | Cc1ccc(C(=O)NCc2nc(-c3ccncc3)n[nH]2)s1
≤ 5 µM | CS(=O)(=O)Nc1cccc(C(=O)NCc2nc(-c3c[nH]c4ncccc34)n[nH]2)c1
≤ 5 µM | CC(C)(C)OC(=O)NCC[C@H](NC(=O)c1ccc(O)cc1O)c1nc(-c2ccncc2)n[nH]1
≤ 5 µM | O=C(NCc1nc(-c2ccncc2)n[nH]1)c1ccc(Oc2cccc(O)c2)cc1
≤ 5 µM | CC(=O)c1ccc(C(=O)NCc2nc(-c3ccncc3)n[nH]2)cc1
≤ 5 µM | O=C(CCc1nc(-c2ccncc2)n[nH]1)c1ccc(O)cc1
